Experimental data taken from paper PMC6445171 (Journal of Enzyme Inhibition and Medicinal Chemistry, 2017).
≈ marks a conversion by molar mass, not a printed value. Where two headings read alike, the source gives them in different places. One block for each compound: values may come before it.

Assays:
physchem = conditions: pH 7.4, aqueous buffer
[1] = cited from earlier work

- Solubility (physchem): 28 µM (≈ 5.61 µg/mL)
SMILES: Nc1ccc2oc(-c3ccco3)nc2c1 [Compound D1, 2-(Furan-2-yl)-1,3-benzoxazol-5-amine]

SMILES: CCn1c(=O)c2c(nc(/C=C/c3ccc(OC)c(OC)c3)n2C)n(CC)c1=O [Istradefylline]
- Solubility ([1]; reference antagonists): 1.5 µM (≈ 0.577 µg/mL)

SMILES: COCCOc1ccc(N2CCN(CCn3ncc4c3nc(N)n3nc(-c5ccco5)nc43)CC2)cc1 [Preladenant]
- Solubility ([1]; reference antagonist): 0.02 µM (≈ 0.0101 µg/mL)
